Measured values as given in patent US9763974B2, “Galacto-rhamnogalacturonate compositions for the treatment of diseases associated with elevated inducible nitric oxide synthase” (Galectin Therapeutics, Inc., priority 2012, dated 2017).

System: inducible nitric oxide synthase (iNOS) in liver tissue
Test: iNOS immunostaining and digital morphometry in liver tissue, STAM mouse model of steatohepatitis
Type: in vivo
Conditions: STAM mice
Description: The experimental model used in this example is the mouse in which diabetes was induced and a high fat diet was administered, a model that has been called STAM mice. Diabetes is induced immediately following birth with a single injection of streptozotocin and then four weeks later the mice are started on a high fat diet. This is a proven chronic inflammatory model in which the mice consistently develop steatohepatitis with hepatocyte fat accumulation, evidence of hepatocyte toxicity, portal and lobular inflammatory infiltrates, peri-sinusoidal fibrosis, advanced fibrosis with nodule formation, cirrhosis, and ultimately hepatocellular carcinoma in a certain percentage of animals.
GR-MD-02, produced as described in Example 1, was given in a dose of 60 mg/kg twice weekly intravenously for four (4) weeks starting at week 9 after initiation of the model through week 12.
GR-MD-02, produced as described in Example 1, was also given in a dose of 120 mg/kg, 60 mg/kg, 30 mg/kg, 10 mg/kg once weekly intravenously for six weeks at the each of the starting at week six of the model and ending at week 12.

galacto-rhamnogalacturonate [GR-MD-02]
quantification of iNOS immunoreactivity (FIG. 3) (10 mg/kg once weekly intravenously for six weeks): statistically significant reductions
quantification of iNOS immunoreactivity (FIG. 3) (30 mg/kg once weekly intravenously for six weeks): statistically significant reductions
quantification of iNOS immunoreactivity (FIG. 1B) (60 mg/kg twice weekly intravenously for 4 weeks, week 9 through week 12): statistically significant reduction
amount of iNOS detected in liver tissue (FIG. 1A) (60 mg/kg twice weekly intravenously for 4 weeks, week 9 through week 12, vs vehicle-treated control): markedly reduced
amount of iNOS detected in liver tissue (FIG. 2) (10, 30, 60 or 120 mg/kg once weekly intravenously for six weeks, week 6 to week 12, vs vehicle-treated control): reduced
quantification of iNOS immunoreactivity (FIG. 3) (various once weekly intravenous doses (10-120 mg/kg) for six weeks): reduction of iNOS immunoreactivity
